Assay results taken from patent US9580465B2, “Tissue protective peptides and peptide analogs for preventing and treating diseases and disorders associated with tissue damage” (ARAIM PHARMACEUTICALS, INC., priority 2008, dated 2017).
“Also recorded” adds a separate entry of the source. Square brackets hold non-standard residues; d marks the D form. pGlu = O=C1CC[C@@H](C(=O)O)N1

Assays:
histamine [1] = test: Histamine induced ear inflammation; type: in vivo, Sprague Dawley rats; conditions: 30 μg/kg IV; 15, 30, 45 and sixty minutes; versus saline; FIG. 15
Experimental: The ability of peptides useful in the current therapeutic method to antagonize the pro-inflammatory affects of histamine were evaluated in a mouse model of histamine-induced edema disclosed in Brand et al. “Tea tree oil reduces histamine-induced oedema in murine ears,” Inflamm. Res. 51 (2002) 283-289. Briefly, 24 Sprague Dawley rats (male, 250 gm) were used in the study. Prior to the histamine challenge, each rat was anesthetized and the thickness of the rat's ear was measured using a spring loaded micrometer. 20 ul of 60 mg/ml solution of histamine diphosphate was injected intradermally into an ear of the rat and 30 seconds later the rat received either (1) 30 μg/kg Peptide ID IV (12 rats) or (2) Saline IV (12 rats). Then 20 ul of 60 mg/ml solution of histamine diphosphate was injected intradermally to the rat's other ear. The thickness of the rats ears was then measured using a caliper at 15, 30, 45 and sixty minutes following the histamine challenge.

[2] = Erythropoietic and hematopoietic effects, 28 days i.v. in rabbits; type: in vivo, New Zealand White rabbits; conditions: 30, 90, 300 μg/kg per dose i.v. twice daily for 28 days, baseline vs. day 29
Experimental: Further the erythropoietic and hematopoietic affects of Peptide ID were evaluated in rabbits. Blood samples were taken of all rabbits prior to the initiation of the study to establish the hematological baseline for the animals. Peptide ID was administered twice daily i.v. to New Zealand White rabbits for 28 days. For this study, six males and females were assigned to groups 1 and 4, and four males and four females were assigned to groups 2 and 3. Group 1 received 0, group 2 received 30 μg (24 nmol/kg bw), group 3 received 90 μg/kg (72 nmol/kg bw); and group 4 received 300 μg/kg (240 nmol/kg bw) per dose Peptide ID in PBS by bolus i.v. administration. Blood samples to assay for hematological variables were collected on day 29.

histamine [3] = test: Histamine induced wheal formation, persistence after single dose; type: in vivo, rats; conditions: FIG. 16
Experimental: The ability of Peptide ID to reduce plasma extravasation (wheal) induced by intradermal histamine administration was evaluated in rats. Animals were pre-administered Evans Blue dye (which binds tightly to albumin) to provide a visual marker of vascular leak. To determine the persistence of peptide IG activity, at various time periods after Peptide ID administration (30 μg/kg, administered intravenously), an intradermal dose of 0.12 μg histamine was administered, and the extent of dye leak quantitated by planimetry performed on digital photographs obtained 15 minutes following histamine placement, a time at which wheal surface area is greatest. Each animal was tested at only a single time point to avoid influence of histamine administration on subsequent responses.

bilateral renal ischemia = test: Bilateral renal ischemia assay; type: in vivo, C57/BL6 mice
Experimental: Sixty male C57/BL6 mice (˜25 g; Charles River Laboratories) were anesthetized with ketamine (150 mg/kg) and xylazine (15 mg/kg) i.p. Each animal was placed on a homeothermic blanket set at 37° C., and after a mid-line laparotomy, the renal pedicles were clamped for 30 minutes using nontraumatic vascular clamps. Peptide ID was administered at the indicated dose via i.p. Injection at 1 minute, 6 hours, and 12 hours after reperfusion. In a single dose study, the mice received a control (PBS), 1 μg/kg of Peptide IG at 1 minute, 1 μg/kg of Peptide IG at 30 minutes, 1 μg/kg of Peptide ID at 6 hours, or 10 μg/kg of Peptide ID at 6 hours (12 mice per group). In a multiple dose study, the mice received either multiple doses of a control (PBS), 0.1 μg/kg of Peptide ID, 1 μg/kg of Peptide ID, or 10 μg/kg of Peptide ID at 1 minute, 6 hours and 12 hours into reperfusion.
Twenty-four hours later, mice were reanesthetized and blood was obtained by cardiac puncture. Plasma urea and creatine were used as indicators of renal dysfunction and aspartate aminotransferase was used as an indicator of renal injury. Data were analyzed using ANOVA followed by Dunnett's post hoc test comparison.

[4] = system: partial body irradiation of 15 Gy; test: Radiomitigating activity in a gastrointestinal screening assay; type: in vivo, C57BL/6 mice; conditions: 15 mice per group, 30 ug/kg subcutaneously from 24 hours, once a day, FIG. 22
Experimental: The ability of peptides useful in the current therapeutic method to mitigate the effects of a radioactive agent on the gastrointestinal system was evaluated in a murine model of radiation injury. Briefly, 30 C57BL/6 mice (male, 20-30 gm) were used in the study.
The radiation was administered to the mice using a Pantak HF320 X-ray (Agfa NDT Ltd., Reading, UK), operated at 300 kV, 10 mA. The X-ray tube has additional filtration to give a radiation quality of 2.3 mm Cu half-value layer (HVL). Mice had their head, thorax, and forelimbs shielded to protect their bone marrow and select for the GI response. The mice were restrained in a jig and positioned at a distance of 700 mm focus from the focus of the X-ray tube. Irradiation was delivered at a dose rate of 75.5 cGy/min (unshielded) and 70.0 cGy/min (shielded) for a period sufficient to expose the mice to 15 Gy of radiation.
At 24 hours following radiation, 15 of the mice were administered Peptide ID (30 ug/kg subcutaneously) and then once a day for the duration of the study and remaining 15 mice (control group) received PBS (subcutaneously) and then once a day for the duration of the study.
The mice were weighed and monitored once a day until signs of diarrhea and early euthanasia appeared, then twice a day.

[5] = system: recall of previously experienced objects; test: Novel object recognition paradigm; type: in vivo, Wistar rats
Experimental: A novel object recognition paradigm in rats was used to evaluate their recall of previously experienced objects. Specifically, adult Wistar rats were exposed to novel test objects and then reexposed to them 24 hours later. Animals were divided into 5 groups receiving either: (1) vehicle, (2) galantamine (3 mg/kg i.p.) 1 hr before testing as a positive control, (3) Peptide ID (24 nmol/kg bw i.p.) 3 hours after the first exposure to the novel objects, (4) Peptide ID (24 nmol/kg bw i.p.) twice daily for 5 days before training and continued through the day immediately after training, and (5) Peptide ID (24 nmol/kg bw i.p.) 1 hour before first exposure to the novel object.

Sequence: UEQLERALNSS ([pGlu]EQLERALNSS-OH; also: acetate/ammonium mixed salt) [Peptide ID, first glutamine replaced with pyroglutamate]
- ear thickness (edema) after histamine challenge (histamine [1]): reduced the amount of edema; also recorded: less inflammation
- hemoglobin concentration ([2]; FIG. 3A): no difference; also recorded: no effect
- hematocrit ([2]; FIG. 3B): no difference; also recorded: no effect
- platelet count ([2]; FIG. 3C): no difference; also recorded: no effect
- persistence of the suppressive effect on wheal formation (histamine [3]; following a single dose of 30 μg/kg intravenously): up to 24 hours
- wheal formation (plasma extravasation) (histamine [3]; single dose 30 μg/kg intravenously before 0.12 μg intradermal histamine): suppress wheal formation
- creatinine, urea and aspartate aminotransferase (biochemical markers of renal dysfunction) (bilateral renal ischemia; multiple doses 1 μg/kg at 1 minute, 6 hours and 12 hours into reperfusion, FIG. 7): reduction in these biochemical markers of renal dysfunction
- creatinine, urea and aspartate aminotransferase (biochemical markers of renal dysfunction) (bilateral renal ischemia; multiple doses 10 μg/kg at 1 minute, 6 hours and 12 hours into reperfusion, FIG. 7): reduction in these biochemical markers of renal dysfunction
- creatinine, urea and aspartate aminotransferase (biochemical markers of renal dysfunction) (bilateral renal ischemia; single dose 1 μg/kg at 6 hours into reperfusion, 24 hrs of reperfusion, FIG. 6): reduction in these biochemical markers of renal dysfunction
- creatinine, urea and aspartate aminotransferase (biochemical markers of renal dysfunction) (bilateral renal ischemia; single dose 10 μg/kg at 6 hours into reperfusion, 24 hrs of reperfusion, FIG. 6): reduction in these biochemical markers of renal dysfunction
- number of mice surviving to day 20 [4]: 6 mice
- recognition of the novel objects ([5]; galantamine 3 mg/kg of bw, Peptide ID 24 nmol/kg of bw at various time points, FIG. 9): increased the rats recognition of the novel objects
- recognition of the novel objects ([5]; group 3: 24 nmol/kg bw i.p. 3 hours after the first exposure to the novel objects): improved recognition of the novel objects
- recognition of the novel objects ([5]; group 4: 24 nmol/kg bw i.p. twice daily for 5 days before training and through the day after training): improved recognition of the novel objects
